Data as given in the supplement of paper PMC10307832.

Key:
Assay in all cases: relative viability (nuclei count vs DMSO), 5 days (fraction); higher = more cells survive
ALW-II-49-7 + Phenformin = compound: Cc1ccc(C(=O)Nc2cccc(C(F)(F)F)c2)cc1Nc1cncc(C(N)=O)c1 [ALW-II-49-7] + N=C(N)NC(=N)NCCc1ccccc1 [Phenformin] (partner 250 µM)
Procedure, shortened: (§1)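 Relative viability is defined as nuclei in treated wells over nuclei in vehicle wells. Duplicate plates were run and medians reported. Lung cancer cell lines in 1536-well plates were dosed by pin tool one day after seeding, with one drug or with a fixed anchor-drug dose plus five library-drug doses (not always all listed) in √10 steps, and nuclei were counted after 5 days.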

ALW-II-49-7 + AZD7762 = compound: Cc1ccc(C(=O)Nc2cccc(C(F)(F)F)c2)cc1Nc1cncc(C(N)=O)c1 [ALW-II-49-7] + NC(=O)Nc1cc(-c2cccc(F)c2)sc1C(=O)N[C@H]1CCCNC1 [AZD7762] (partner 0.2 µM)
Procedure, shortened: as §1

ALW-II-49-7 + Vorinostat = compound: Cc1ccc(C(=O)Nc2cccc(C(F)(F)F)c2)cc1Nc1cncc(C(N)=O)c1 [ALW-II-49-7] + O=C(CCCCCCC(=O)Nc1ccccc1)NO [Vorinostat] (partner 1 µM)
Procedure, shortened: as §1

Dasatinib + Olaparib = compound: Cc1nc(Nc2ncc(C(=O)Nc3c(C)cccc3Cl)s2)cc(N2CCN(CCO)CC2)n1 [Dasatinib] + O=C(c1cc(Cc2n[nH]c(=O)c3ccccc23)ccc1F)N1CCN(C(=O)C2CC2)CC1 [Olaparib] (partner 8 µM)
Procedure, shortened: as §1

Row | Cell Line | relative viability (ALW-II-49-7 + Phenformin; first compound 0.08 µM) | relative viability (ALW-II-49-7 + Phenformin; first compound 0.253 µM) | relative viability (ALW-II-49-7 + Phenformin; first compound 0.8 µM) | relative viability (ALW-II-49-7 + Phenformin; first compound 2.53 µM) | relative viability (ALW-II-49-7 + Phenformin; first compound 8 µM) | relative viability (ALW-II-49-7 + AZD7762; first compound 0.08 µM) | relative viability (ALW-II-49-7 + AZD7762; first compound 0.253 µM) | relative viability (ALW-II-49-7 + AZD7762; first compound 0.8 µM) | relative viability (ALW-II-49-7 + AZD7762; first compound 2.53 µM) | relative viability (ALW-II-49-7 + AZD7762; first compound 8 µM) | relative viability (ALW-II-49-7 + Vorinostat; first compound 0.08 µM) | relative viability (ALW-II-49-7 + Vorinostat; first compound 0.253 µM) | relative viability (ALW-II-49-7 + Vorinostat; first compound 0.8 µM) | relative viability (ALW-II-49-7 + Vorinostat; first compound 2.53 µM) | relative viability (ALW-II-49-7 + Vorinostat; first compound 8 µM) | relative viability (Dasatinib + Olaparib; first compound 0.005 µM) | relative viability (Dasatinib + Olaparib; first compound 0.01581 µM) | relative viability (Dasatinib + Olaparib; first compound 0.05 µM) | relative viability (Dasatinib + Olaparib; first compound 0.1581 µM) | relative viability (Dasatinib + Olaparib; first compound 0.5 µM)
1 | NCI-H2085 | 0.754 | 0.639 | 0.677 | 0.889 | 0.693 | 0.987 | 1.06 | 0.988 | 1.06 | 0.834 | 0.787 | 0.899 | 0.718 | 0.817 | 0.702 | 0.799 | 0.745 | 0.553 | 0.292 | 0.187
2 | NCI-H2087 | 0.526 | 0.459 | 0.488 | 0.467 | 0.445 | 1.52 | 1.46 | 1.18 | 1.14 | 1.11 | 0.687 | 0.597 | 0.662 | 0.508 | 0.38 | 0.635 | 0.55 | 0.902 | 0.42 | 0.349
3 | NCI-H2126 | 0.507 | 0.549 | 0.505 | 0.515 | 0.485 | 0.981 | 1.05 | 0.913 | 1 | 0.984 | 0.8 | 0.877 | 0.778 | 0.71 | 0.707 | 0.932 | 0.84 | 0.845 | 0.681 | 0.416
4 | NCI-H2170 | 0.411 | 0.435 | 0.432 | 0.387 | 0.346 | 1.03 | 0.775 | 0.833 | 0.835 | 0.817 | 0.917 | 0.921 | 0.841 | 0.796 | 0.867 | 0.585 | 0.572 | 0.525 | 0.427 | 0.263
5 | NCI-H2342 | 0.572 | 0.602 | 0.635 | 0.497 | 0.564 | 0.506 | 0.498 | 0.419 | 0.408 | 0.484 | 0.702 | 0.922 | 0.744 | 0.837 | 0.859 | 0.564 | 0.397 | 0.364 | 0.274 | 0.285
6 | NCI-H2347 | 0.455 | 0.334 | 0.329 | 0.26 | 0.297 | 1.02 | 0.727 | 0.606 | 0.676 | 0.638 | 0.519 | 0.5 | 0.653 | 0.49 | 0.559 | 0.566 | 0.508 | 0.482 | 0.269 | 0.256
7 | NCI-H2405 | 0.389 | 0.411 | 0.343 | 0.351 | 0.358 | 0.746 | 0.808 | 0.553 | 0.645 | 0.485 | 1.08 | 1.14 | 0.968 | 0.905 | 0.789 | 0.749 | 0.531 | 0.458 | 0.282 | 0.231
8 | NCI-H3122 | 0.394 | 0.366 | 0.381 |  | 0.302 | 1.05 | 0.853 | 1.06 | 1.05 | 1.03 | 1.06 | 0.907 | 0.854 | 1.15 | 0.987 | 0.606 | 0.543 | 0.657 | 0.574 | 0.534
9 | PC-3 [JPC-3] | 0.486 | 0.461 | 0.456 | 0.448 | 0.452 | 0.738 | 0.735 | 0.68 | 0.801 | 0.672 | 0.833 | 0.822 | 0.678 | 0.846 | 0.742 | 1.22 | 1.14 | 1.16 | 1.08 | 0.609
10 | PC-14 | 0.562 | 0.637 | 0.528 | 0.406 | 0.546 | 0.445 | 0.318 | 0.447 |  | 0.236 | 0.474 | 0.544 | 0.668 | 0.562 | 0.588 | 0.29 | 0.31 | 0.368 | 0.224 | 0.0781
11 | RERF-LC-KJ | 0.419 | 0.456 | 0.414 | 0.373 | 0.397 | 1.15 | 0.995 | 0.827 | 0.975 | 0.956 | 0.646 | 0.731 | 0.653 | 0.755 | 0.646 | 0.906 | 0.836 | 0.87 | 0.788 | 0.816
12 | SW 900 | 0.397 | 0.542 | 0.549 | 0.703 | 0.534 | 0.616 | 0.485 |  | 0.554 | 0.542 | 0.539 | 0.554 |  | 0.517 | 0.289 | 0.65 | 0.436 | 0.395 | 0.324 | 0.336
